This note sets out measurements from ChEMBL document CHEMBL1157297, “Daphmanidins E and F, alkaloids from Daphniphyllum teijsmannii” (2006).

The test system of assay [1] is Aorta. As to the kind of experiment: Vasorelaxant activity against norepinephrine-induced contraction in Wistar rat thoracic aorta at 100 uM. It counts as functional. Also noted: scale not given: the % may be the effect or the level left.
Assay [2] concerns Aorta. As to the kind of experiment: Vasorelaxant activity against norepinephrine-induced contraction in Wistar rat thoracic aorta at 10 uM. Type of assay: functional. The arrangement: scale not given: the % may be the effect or the level left.

`COC(=O)C1=C2CCC3=C2[C@@]2(C1)C1=NC[C@@H](C)[C@]14CC[C@@]2(COC(C)=O)[C@H](CC3)[C@H]4O` [DAPHMANIDIN E] came in with an Activity in assay [1] of 34.9%.

As for `COC(=O)C1=C2CC[C@]34CC[C@@H]5[C@@H](O)[C@@]67CC[C@]5(COC(C)=O)[C@](C1)(C6=NC[C@H]7C)[C@]23O4` [DAPHMANIDIN F], the Activity in assay [2] is listed as 45.8%.

`COC(=O)[C@@H]1C[C@]23C4=NC[C@@H](C)[C@]45CC[C@@]2(COC(C)=O)[C@H](CCC2=C3[C@@H]1CC2)[C@H]5O` [DAPHMANIDIN A] came in with an Activity in assay [2] of 37.5%.
